14 compounds from patent US20130090364A1, “ANALOGUES FOR THE TREATMENT OR PREVENTION OF FLAVIVIRUS INFECTIONS” (priority 2010, published 2013) can be followed below.

As usually defined, the EC50 is the concentration needed to bring the measured effect to its halfway point. A lower EC50 goes with an effect from little substance.

The test system of the first assay is HCV (1b) RNA replication (replicon I389Luc-ubi-neo/NS3-3′/5.1). In words: Cell-based luciferase reporter HCV (1b) RNA replication assay, Huh-ET cells. The following applies: Hepatitis C virus; Table 2A; HCV genotype 1b replicon. From the text: Cell-Based Luciferase Reporter HCV (Ib) RNA Replication Assay Cell Culture
Replicon cell lines Huh-5.2 are derived from the Huh-7 hepatocarcinoma cell line are maintained in culture as generally described in Krieger, N; Lohmann, V; Bartenschlager, R. Enhancement of hepatitis C virus RNA replication by cell culture-adaptive mutations. J. Virol. 2001, 75, 4614-4624. The Huh-5.2 cells contain the highly cell culture-adapted replicon I389Luc-ubi-neo/NS3-3′/5.1 construct that carries, in addition to the neomycin gene, an integrated copy to the firefly luciferase gene (Krieger, N; Lohmann, V; Bartenschlager, R. Enhancement of hepatitis C virus RNA replication by cell culture-adaptive mutations. J. Virol. 2001, 75, 4614-4624). This cell line allows measurement of HCV RNA replication and translation by measuring luciferase activity. It has been previously shown that the luciferase activity tightly follows the replicon RNA level in these cells (Krieger, N; Lohmann, V; Bartenschlager, R. Enhancement of hepatitis C virus RNA replication by cell culture-adaptive mutations. J. Virol. 2001, 75, 4614-4624). The Huh-ET cell line has the same features as those mentioned for Huh-5.2 cell line, except that ET cells are more robust and contain an adaptative mutation in the HCV NS4B gene instead of NSSA. Both cell lines are maintained in cultures at a sub-confluent level (<85%) as the level of replicon RNA is highest in actively proliferating cells. The culture media used for cell passaging consist of DMEM (Gibco BRL Laboratories, Mississauga, ON, Canada) supplemented with 10% foetal bovine serum with 1% penicilin/streptomycin, 1% glutamine, 1% sodium pyruvate, 1% non-essential amino acids, and 180 μg/ml of G418 final concentration. Cells are incubated at 37° C., in an atmosphere of 5% CO2 and passaged twice a week to maintain sub-confluence.
Approximately 3000 viable Huh-ET cells (100 μl) are plated per well in a white opaque 96-well microtiter plate. The cell culture media used for the assay is the same as described above except that it contains no G418 and no phenol red. After an incubation period of 3-4 hours at 37° C. in a 5% CO2 incubator, compounds (100 μl) are added at various concentrations. Cells are then further incubated for 4 days at 37° C. in a 5% CO2 incubator. Thereafter, the culture media is removed and cells are lysed by the addition of 95 μL of the luciferase buffer (luciferin substrate in buffered detergent). Cell lysates are incubated at room temperature and protected from direct light for at least 10 minutes. Plates are read for luciferase counts using a luminometer (Wallac MicroBeta Trilux, Perkin Elmer™, MA, USA).
Curves are fitted to data points using nonlinear regression analysis, and IC50s are interpolated from the resulting curve using GraphPad Prism software, version 2.0 (GraphPad Software Inc., San Diego, Calif., USA).
In general terms: In a reporter assay the amount or activity of a reporter protein is the signal.
Take `COC(=O)N[C@H](C(=O)N1CCCC1c1nc2cc(C#Cc3cc4[nH]c([C@@H]5CCCN5C(=O)[C@@H](NC(=O)OC)C(C)C)nc4s3)ccc2[nH]1)C(C)C` (some centres unmarked) [Compound 1]: the EC50 was no more than 5 nM. The compound `COC(=O)N[C@H](C(=O)N1CCC[C@H]1c1nc2sc(C#CC#Cc3cc4[nH]c([C@@H]5CCCN5C(=O)[C@@H](NC(=O)OC)C(C)C)nc4s3)cc2[nH]1)C(C)C` [Compound 2] returned an EC50 of no more than 5 nM.

`COC(=O)N[C@H](C(=O)N1C[C@@H](C)C[C@H]1c1nc2cc(C#Cc3cc4[nH]c([C@@H]5C[C@H](C)CN5C(=O)[C@@H](NC(=O)OC)C(C)C)nc4s3)ccc2[nH]1)C(C)C` [Compound 3] yielded an EC50 of no more than 5 nM.

Compound `COC(=O)N[C@H](C(=O)N1C[C@@H](C)C[C@H]1c1nc2sc(C#CC#Cc3cc4[nH]c([C@@H]5C[C@H](C)CN5C(=O)[C@@H](NC(=O)OC)C(C)C)nc4s3)cc2[nH]1)C(C)C` [Compound 4, dimethyl (2S,2′S)-1,1′-((3S,3′S,5S,5′S)-5,5′-(5,5′-(buta-1,3-diyne-1,4-diyl)bis(1H-thieno[2,3-d]imidazole-5,2-diyl))bis(3-methylpyrrolidine-5,1-diyl))bis(3-methyl-1-oxobutane-2,1-diyl)dicarbamate] gave an EC50 of no more than 5 nM. Still for that read-out and setting: as for `COC(=O)N(C)[C@H](C(=O)N1C[C@@H](C)C[C@H]1c1nc2sc(C#CC#Cc3cc4[nH]c([C@@H]5C[C@H](C)CN5C(=O)[C@H](C(C)C)N(C)C(=O)OC)nc4s3)cc2[nH]1)C(C)C` [Compound 5], the figure is no more than 5 nM; as for `COC(=O)N[C@H](C(=O)N1C[C@@H](C)C[C@H]1c1nc2sc(-c3ccc(-c4ccc5[nH]c([C@@H]6CC[C@H](C)N6C(=O)[C@@H](NC(=O)OC)C(C)C)nc5c4)cc3)cc2[nH]1)C(C)C` [Compound 7], no more than 5 nM; as for `COC(=O)N[C@H](C(=O)N1C[C@@H](C)C[C@H]1c1nc2sc(-c3ccc(-c4ccc5nc([C@@H]6CC[C@H](C)N6C(=O)[C@@H](NC(=O)OC)C(C)C)oc5c4)cc3)cc2[nH]1)C(C)C` [Compound 8], no more than 5 nM.

The assay is the same for the next values; noted with them: Hepatitis C virus; Table 2B; HCV genotype 1b replicon.
`COC(=O)N[C@H](C(=O)N1C[C@@H](C)C[C@H]1c1nc(Cl)c(-c2ccc(-c3ccc(-c4cc5nc([C@@H]6C[C@H](C)CN6C(=O)[C@@H](NC(=O)OC)C(C)C)[nH]c5s4)cc3)cc2)[nH]1)C(C)C` [Compound 1a]: the EC50 is no more than 5 nM.

The compound `COC(=O)N[C@H](C(=O)N1C[C@@H](C)C[C@H]1c1nc(Cl)c(-c2ccc(-c3ccc(-c4sc5[nH]c([C@@H]6C[C@H](C)CN6C(=O)[C@@H](NC(=O)OC)C(C)C)nc5c4Cl)cc3)cc2)[nH]1)C(C)C` [Compound 2a] had an EC50 of no more than 5 nM. On the same count and under the same terms, for `COC(=O)N[C@H](C(=O)N1C[C@@H](C)C[C@H]1c1nc(I)c(-c2ccc(-c3ccc(-c4cc5nc([C@@H]6C[C@H](C)CN6C(=O)[C@@H](NC(=O)OC)C(C)C)[nH]c5s4)cc3)cc2)[nH]1)C(C)C` [Compound 3a] the value was no more than 5 nM. As for `C[C@H]1C[C@@H](c2ncc(-c3ccc(-c4ccc(-c5cc6[nH]c([C@@H]7C[C@H](C)CN7C(=O)OC(C)(C)C)nc6s5)cc4)c(F)c3)[nH]2)N(C(=O)OC(C)(C)C)C1` [Compound 4a], the EC50 was no more than 5 nM.

In the case of `COC(=O)N[C@H](C(=O)N1C[C@@H](C)C[C@@H]1c1nc2cc(-c3ccc(-c4ccc(-c5c[nH]c([C@@H]6C[C@H](C)CN6C(=O)[C@@H](NC(=O)OC)C(C)C)n5)cc4)cc3C)sc2[nH]1)C(C)C` [Compound 5a], the EC50 was no more than 5 nM. As for `COC(=O)N[C@H](C(=O)N1C[C@@H](C)C[C@H]1c1nc(-c2ccc(-c3ccc(-c4cc5[nH]c([C@@H]6C[C@H](C)CN6C(=O)[C@@H](NC(=O)OC)C(C)C)nc5s4)cc3F)cc2)c[nH]1)C(C)C` [Compound 6a], the EC50 was no more than 5 nM. Still for that read-out and setting: for `COC(=O)N[C@H](C(=O)N1C[C@@H](C)C[C@H]1c1nc(-c2ccc(-c3ccc(-c4cc5[nH]c([C@@H]6C[C@H](C)CN6C(=O)[C@@H](NC(=O)OC)C(C)C)nc5s4)c(F)c3)cc2)c[nH]1)C(C)C` [Compound 7a] the value was no more than 5 nM.
